For test [1], the system named is human corneal epithelial cells (HCEpCs). Put plainly: PDMS stencil wound assay, HCEpCs, bolus HA or MMP-9. Format: cell-based. The conditions noted are these: for increase of wound healing rate: 0.1-0.6 mg/mL. On the procedure:
HCEpCs were cultured in a T-25 flask with keratinocyte serum-free media supplemented with keratinocyte growth serum and penicillin/streptomycin (KM; Sciencell) that was changed every other day. The SV-40 immortalized HCEpCs were generously donated from a collaborator (for example, see: F. Li, M. Griffith, Z. Li, S. Tanodekaew, H. Sheardown, M. Hakim, and D. J. Carlsson, “Recruitment of multiple cell lines by collagen-synthetic copolymer matrices in corneal regeneration,” Biomaterials, vol. 26, no. 16, pp. 3093-3104, 2005 Jun. 1, doi: https://doi.org/10.1016/j.biomaterials.2004.07.063; and/or M. Griffith, R. Osborne, R. Munger, X. Xiong, C. J. Doillon, N. L. C. Laycock, M. Hakim, Y. Song, and M. A. Watsky, “Functional Human Corneal Equivalents Constructed from Cell Lines,” Science, vol. 286, no. 5447, pp. 2169-2172, 1999, doi: 10.1126/science.286.5447.2169, the entire contents of which are incorporated herein by reference). Once confluence was reached, the HCEpCs were passaged in 2 ml of TrypLE Express (GIBCO, Life Technologies, Thermo Scientific) and subcultured for the wound assay as described previously. The HCEpCs were cultured with KM until a monolayer had formed. Wound assays were conducted as described above for RCEpCs. The well was then rinsed with PBS and replaced with KM. Images were taken daily to observe the closure of the wound and graphs were generated using GraphPad Prism 6.
(§1) To validate the wound assays 200 kDa hyaluronic acid (151-300 kDa HA; Lifecore Biomedicals) were added to the media of both RCEpC and HCEpC PDMS wound assays. Once the wound assays were validated, the efficacy of medium sized 60 kDa HA (66-99 kDa; Lifecore Biomedicals) was investigated. Various concentrations of 60 kDa HA were dissolved in KM and added as a bolus dosage to HCEpC wound assays. The media was changed daily until full closure of the wound. Images were taken daily to observe the closure of the wound and graphs were generated using GraphPad Prism 6.
(§2) To verify if the wound assay could provide a consistent initial wound area to two different corneal epithelial cell types, 1 mm diameter PDMS wound assays were performed with both rabbit corneal epithelial cells (RCEpCs; FIG. 20A) and human corneal epithelial cells (HCEpCs; FIG. 20B). Primary RCEpCs were initially used as they would behave similar to future in vivo rabbit studies. Healing of the wound varied between the two cell-types, with the primary RCEpC wound healing within 2 days and the HCEpC wound healing in 7 days (FIG. 20C). […] The improvement was narrowed to 21% (95.9%±6.9% wound closure) at 18.5 hours, compared to the control (74.9%±9.0%). […] HA was confirmed to be a potential drug due to its consistency among cell types, rapid ability to heal wounds, low minimum effective concentration, and cost efficiency.
Most literature assesses the effects of native high molecular weight HA and oligomer HA on epithelial wound healing. To obtain an ideal MMP-9 controlled release profile, the influence of mid-size 60 kDa HA on corneal wound healing was investigated. PDMS-stencil wound assays were conducted using 0.05, 0.1, 0.3, 0.6, or 1.0 mg/ml of 60 kDa HA treatments daily (FIG. 21A). A 250 ng/ml MMP-9 sample was included to observe the effects of the enzyme on wound healing, similar to an in vivo environment.

Test [2] deals with rabbit corneal epithelial cells (RCEpCs). Put plainly: PDMS stencil wound assay, RCEpCs, bolus HA. Format: cell-based. As to the method:
Primary rabbit corneal epithelial cells (Cell Biologics Inc.) were cultured using a T-25 flask in epithelial cell media supplemented with insulin-transferrin-selenium, epidermal growth factor, L-glutamine, antibiotic-antimycotic solution and fetal bovine serum (Cell Biologics Inc.). Once confluence was reached, the RCEpCs were briefly rinsed with PBS and passaged with trypsin-EDTA (GIBCO, Thermo Scientific). The cells were then sub-cultured on a 24-well plate surface pre-coated with a gelatin-based coating (Cell Biologics Inc.) containing a thin, punched out poly-dimethyl siloxane (PDMS) stencil adhered to the surface. The media was changed daily until a cell monolayer was formed. The PDMS disk stencil was then carefully removed from the surface. The well was then rinsed with PBS and replaced with epithelial cell media. Images were taken daily to observe the closure of the wound and graphs were generated using GraphPad Prism 6.
as §1, §2

This is an account of results in patent US20220168472A1, “ENZYME-DEGRADABLE HYDROGEL FOR DELIVERY OF A PAYLOAD” (priority 2019, published 2022).

Turning to hyaluronic acid [60 kDa HA], the “increase of wound healing rate” value in test [1] (60 hours) is given as 24%; in test [1] (first 24 hours) it was 40%. The “wound healing compared to the control” value is given as “healed rapidly” in test [1] (0.3, 0.6, and 0.05 mg/ml daily); “slowed wound healing compared to the control” in test [1] (the other HA samples (of 0.05, 0.1, 0.3, 0.6, 1.0 mg/ml) daily).
With hyaluronic acid [HA], the “improvement in wound healing relative to the control” value amounted to 149% in test [2] (0.45 mg/ml HA, 4 hours); 21% in test [2] (0.45 mg/ml HA, 18.5 hours); 35% in test [2] (0.75 mg/ml HA, 12 hours); 31% in test [1] (0.45 mg/ml HA, 33 hours); 19% in test [1] (0.45 mg/ml HA, 59.5 hours); 58% in test [1] (0.75 mg/ml HA, 18.5 hours). Also, the “improvement in wound healing relative to the control” value in test [1] (0.75 mg/ml HA, 59.5 hours) was found to be 26%. For the same substance, the wound closure is reported as 36.4%±14.6% in test [2] (0.45 mg/ml HA, 4 hours); 95.9%±6.9% in test [2] (0.45 mg/ml HA, 18.5 hours); 64.9%±13.6% in test [2] (0.75 mg/ml HA, 12 hours); 42.8%±7.2% in test [1] (0.45 mg/ml HA, 33 hours); 81.8%±7.6% in test [1] (0.45 mg/ml HA, 59.5 hours); 27.5%±7.1% in test [1] (0.75 mg/ml HA, 18.5 hours). In addition, the wound closure in test [1] (0.75 mg/ml HA, 59.5 hours) is reported as 86.5%±4.2%.
